Measurements from PubChem BioAssay (NCI).
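Here, GI50 denotes the concentration required for 50% inhibition of growth. TGI denotes the concentration required for complete inhibition of growth.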

Legend:
Assay in all cases: DTP human tumour cell line panel, 384-well format
LOX IMVI melanoma = system: LOX IMVI melanoma
BT-549 breast = system: BT-549 breast
OVCAR-3 ovarian = system: OVCAR-3 ovarian
NCI-H522 lung = system: NCI-H522 lung
IGROV1 ovarian = system: IGROV1 ovarian
COLO 205 colon = system: COLO 205 colon
NCI-H322M lung = system: NCI-H322M lung
SK-MEL-28 melanoma = system: SK-MEL-28 melanoma
SN12C renal = system: SN12C renal
MALME-3M melanoma = system: MALME-3M melanoma
EKVX NSCLC = system: EKVX NSCLC
RXF 393 renal = system: RXF 393 renal
HCT-116 colon = system: HCT-116 colon
UACC-62 melanoma = system: UACC-62 melanoma
HT29 colon = system: HT29 colon
MOLT-4 leukemia = system: MOLT-4 leukemia
A549 NSCLC = system: A549 NSCLC
OVCAR-4 ovarian = system: OVCAR-4 ovarian
SF-268 CNS = system: SF-268 CNS
PC-3 prostate = system: PC-3 prostate
NCI-H226 lung = system: NCI-H226 lung
TK-10 renal = system: TK-10 renal
ACHN renal = system: ACHN renal
HOP-92 NSCLC = system: HOP-92 NSCLC
SK-MEL-2 melanoma = system: SK-MEL-2 melanoma
HCT-15 colon = system: HCT-15 colon
SW-620 colon = system: SW-620 colon
HOP-62 NSCLC = system: HOP-62 NSCLC
MDA-MB-435 melanoma = system: MDA-MB-435 melanoma
SR leukemia = system: SR leukemia
HS 578T breast = system: HS 578T breast
RPMI-8226 leukemia = system: RPMI-8226 leukemia
SK-MEL-5 melanoma = system: SK-MEL-5 melanoma
OVCAR-8 ovarian = system: OVCAR-8 ovarian
MDA-MB-468 breast = system: MDA-MB-468 breast
SNB-75 CNS = system: SNB-75 CNS
HL-60(TB) leukemia = system: HL-60(TB) leukemia
U251 glioblastoma = system: U251 glioblastoma
CAKI-1 renal = system: CAKI-1 renal
UO-31 renal = system: UO-31 renal
NCI/ADR-RES ovarian = system: NCI/ADR-RES ovarian
KM12 colon = system: KM12 colon
NCI-H460 NSCLC = system: NCI-H460 NSCLC
786-0 renal = system: 786-0 renal
A498 renal = system: A498 renal
HCC-2998 colon = system: HCC-2998 colon
DU-145 prostate = system: DU-145 prostate

COCCOc1cc(F)c2c(Nc3ccc(NC(=O)Cn4cc(C(C)C)nn4)cc3)ncnc2c1
GI50 (LOX IMVI melanoma): 43.6 µM
TGI (LOX IMVI melanoma): > 100 µM
GI50 (BT-549 breast): 38.4 µM
TGI (BT-549 breast): > 100 µM
GI50 (OVCAR-3 ovarian): 50.7 µM
TGI (OVCAR-3 ovarian): > 100 µM
GI50 (NCI-H522 lung): 18.1 µM
TGI (NCI-H522 lung): 92.3 µM
GI50 (IGROV1 ovarian): 53.5 µM
TGI (IGROV1 ovarian): > 100 µM
GI50 (COLO 205 colon): 40.8 µM
TGI (COLO 205 colon): > 100 µM
GI50 (NCI-H322M lung): > 100 µM
TGI (NCI-H322M lung): > 100 µM
GI50 (SK-MEL-28 melanoma): > 100 µM
TGI (SK-MEL-28 melanoma): > 100 µM
GI50 (SN12C renal): 12.9 µM
TGI (SN12C renal): > 100 µM
GI50 (MALME-3M melanoma): 25 µM
TGI (MALME-3M melanoma): > 100 µM
GI50 (EKVX NSCLC): 41 µM
TGI (EKVX NSCLC): > 100 µM
GI50 (RXF 393 renal): 39.8 µM
TGI (RXF 393 renal): > 100 µM
GI50 (HCT-116 colon): 48.7 µM
TGI (HCT-116 colon): > 100 µM
GI50 (UACC-62 melanoma): 31.1 µM
TGI (UACC-62 melanoma): > 100 µM
GI50 (HT29 colon): > 100 µM
TGI (HT29 colon): > 100 µM
GI50 (MOLT-4 leukemia): 3.68 µM
TGI (MOLT-4 leukemia): 18.7 µM
GI50 (A549 NSCLC): 53.2 µM
TGI (A549 NSCLC): > 100 µM
GI50 (OVCAR-4 ovarian): > 100 µM
TGI (OVCAR-4 ovarian): > 100 µM
GI50 (SF-268 CNS): 43.1 µM
TGI (SF-268 CNS): > 100 µM
GI50 (PC-3 prostate): 62.9 µM
TGI (PC-3 prostate): > 100 µM
GI50 (NCI-H226 lung): 7.16 µM
TGI (NCI-H226 lung): > 100 µM
GI50 (TK-10 renal): 29.8 µM
TGI (TK-10 renal): > 100 µM
GI50 (ACHN renal): > 100 µM
TGI (ACHN renal): > 100 µM
GI50 (HOP-92 NSCLC): 30.7 µM
TGI (HOP-92 NSCLC): > 100 µM
GI50 (SK-MEL-2 melanoma): 66.7 µM
TGI (SK-MEL-2 melanoma): > 100 µM
GI50 (HCT-15 colon): 24.9 µM
TGI (HCT-15 colon): > 100 µM
GI50 (SW-620 colon): 52 µM
TGI (SW-620 colon): > 100 µM
GI50 (HOP-62 NSCLC): 18.1 µM
TGI (HOP-62 NSCLC): > 100 µM
GI50 (MDA-MB-435 melanoma): 62.1 µM
TGI (MDA-MB-435 melanoma): > 100 µM
GI50 (SR leukemia): 10.1 µM
TGI (SR leukemia): 41.5 µM
GI50 (HS 578T breast): 12.2 µM
TGI (HS 578T breast): 82.3 µM
GI50 (RPMI-8226 leukemia): 5.06 µM
TGI (RPMI-8226 leukemia): 34.3 µM
GI50 (SK-MEL-5 melanoma): 11.2 µM
TGI (SK-MEL-5 melanoma): > 100 µM
GI50 (OVCAR-8 ovarian): 26.7 µM
TGI (OVCAR-8 ovarian): > 100 µM
GI50 (MDA-MB-468 breast): 7.69 µM
TGI (MDA-MB-468 breast): > 100 µM
GI50 (SNB-75 CNS): 11.9 µM
TGI (SNB-75 CNS): > 100 µM
GI50 (HL-60(TB) leukemia): 17.3 µM
TGI (HL-60(TB) leukemia): 37.9 µM
GI50 (U251 glioblastoma): 57.9 µM
TGI (U251 glioblastoma): > 100 µM
GI50 (CAKI-1 renal): 38.4 µM
TGI (CAKI-1 renal): > 100 µM
GI50 (UO-31 renal): 72 µM
TGI (UO-31 renal): > 100 µM
GI50 (NCI/ADR-RES ovarian): > 100 µM
TGI (NCI/ADR-RES ovarian): > 100 µM
GI50 (KM12 colon): 0.56 µM
TGI (KM12 colon): > 100 µM
GI50 (NCI-H460 NSCLC): 31.7 µM
TGI (NCI-H460 NSCLC): > 100 µM
GI50 (786-0 renal): 49.7 µM
TGI (786-0 renal): > 100 µM
GI50 (A498 renal): 79.9 µM
TGI (A498 renal): > 100 µM
GI50 (HCC-2998 colon): 29.3 µM
TGI (HCC-2998 colon): > 100 µM
GI50 (DU-145 prostate): 75 µM
TGI (DU-145 prostate): > 100 µM
